Source: US20250325717A1, “ANTI-NUCLEOPHOSMIN 1 ANTIBODY AND ANTIBODY CONJUGATE COMBINATION THERAPIES” (The Children's Medical Center Corporation, priority 2022, published 2025)

Tests used:
[1] = tested on: NPM1 on the surface of OCI-AML3 cells; experiment: Effect of chemotherapeutics on anti-NPM1 antibody binding to OCI-AML3 cell surface; type: cell-based, human
OCI-AML3 cells = experiment: Low dose chemotherapeutics: induction of cell surface NPM1 on OCI-AML3 cells; type: cell-based, human; conditions: daunorubicin 10 nanomolar (nm), venetoclax 40 nm; for NPM1 on the cell surface: 48 hrs
Protocol: To determine whether low doses of chemotherapeutic agents, daunorubicin and venetoclax, induce cell surface NPM1, OCI-AML3 cells were exposed to either control or a low dose of a chemotherapeutic treatment. OCI-AML3 cells are resistant to BLC2i. Daunorubicin was administered at 10 nanomolar (nm) and venetoclax was administered at 40 nm. Administration of daunorubicin increased NPM1 on the cell surface at 48 hrs and maintained higher expression for at least 9 days. Administration of venetoclax and separately 5-Aza increased NPM1 at 48 hrs and maintained higher expression for at least 7 days (FIG. 32).

[2] = tested on: Normal hematopoietic precursor cell line HPC7; experiment: Low dose chemotherapeutics: cell surface NPM1 on non-transformed HPC7 cells; type: cell-based; conditions: daunorubicin 10 nM, venetoclax 40 nM, 48 and 72 hours
Protocol: (§1) The ability of low doses of chemotherapeutic agents, daunorubicin and venetoclax, to induce cell surface NPM1 on non-transformed cells was tested. Normal hematopoietic precursor cell line HPC7 and normal myeloid progenitor line HOXB8 were exposed to either control or a low dose of a chemotherapeutic treatment. Doses of daunorubicin and venetoclax were administered at 10 nanomolar (nM) and 40 nM, respectively. The results of the antibody binding measured by flow cytometry show no change in the low dose chemotherapeutic compared to controls (FIG. 33).

[3] = tested on: normal myeloid progenitor line HOXB8; experiment: Low dose chemotherapeutics: cell surface NPM1 on non-transformed HOXB8 cells; type: cell-based; conditions: daunorubicin 10 nM, venetoclax 40 nM, 48 and 72 hours
Protocol: as §1

[4] = target: T1, surface localized NPM1 on primary murine MLL-rearranged AML cells (Mus musculus, UniProt Q61937); experiment: FACS binding to primary murine MLL-rearranged AML cells; type: cell-based
T1 construct: endogenous in cells; host or cells: primary murine MLL-rearranged AML cells
Text: (§2) Given that a variety of murine and human leukemia cell lines express cell surface WT and/or mutant NPM1, it was subsequently assessed whether the isolated antibodies could also bind to the surface of these cells. […] These antibodies could further be used in other applications, including, for example, diagnostic agents by instead conjugating the antibodies with an imaging agent, which can in turn be used to locate and measure the relative abundance of cancer cells in a patient.

[5] = tested on: surface localized NPM1 on primary murine NPM1c AML cells; experiment: FACS binding to primary murine NPM1c AML cells; type: cell-based
Text: as §2

[6] = tested on: NPM1 on human patient derived xenograft (PDX) cells; experiment: FACS binding to human PDX cells transplanted into a mouse model; type: cell-based
Text: as §2

[7] = tested on: host murine bone marrow cells; experiment: FACS binding to host murine bone marrow cells of PDX mice; type: cell-based; conditions: host bone marrow of PDX mouse model
Text: as §2

murine NPM1 = target: T2, murine NPM1 (murine, UniProt Q61937 1-292); experiment: FACS, primary murine MLL-r AML cells
T2 construct: also called NPM1 on primary murine MLL-rearranged (MLL-r) AML cells; NPM1 on MLL-AF9/Flt3-ITD AML cells

[8] = target: T3, human nucleophosmin 1 (NPM1) (human, UniProt P06748 1-294); experiment: FACS, human AML PDX cells (PDX-1, PDX-3, PDX-4)
T3 construct: In the blots it is NPM1 from lysates or membrane fractions, not on cells; also called WT NPM1; wild-type NPM1
T3 sequence (P06748 whole entry): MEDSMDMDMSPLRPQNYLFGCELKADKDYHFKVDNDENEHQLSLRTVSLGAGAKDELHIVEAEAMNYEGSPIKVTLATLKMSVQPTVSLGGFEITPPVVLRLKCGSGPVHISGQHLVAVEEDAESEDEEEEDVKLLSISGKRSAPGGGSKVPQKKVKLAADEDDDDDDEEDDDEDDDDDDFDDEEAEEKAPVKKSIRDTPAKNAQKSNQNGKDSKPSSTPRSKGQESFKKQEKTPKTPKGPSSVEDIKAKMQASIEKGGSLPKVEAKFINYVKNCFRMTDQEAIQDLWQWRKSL

T2 sequence (Q61937 whole entry): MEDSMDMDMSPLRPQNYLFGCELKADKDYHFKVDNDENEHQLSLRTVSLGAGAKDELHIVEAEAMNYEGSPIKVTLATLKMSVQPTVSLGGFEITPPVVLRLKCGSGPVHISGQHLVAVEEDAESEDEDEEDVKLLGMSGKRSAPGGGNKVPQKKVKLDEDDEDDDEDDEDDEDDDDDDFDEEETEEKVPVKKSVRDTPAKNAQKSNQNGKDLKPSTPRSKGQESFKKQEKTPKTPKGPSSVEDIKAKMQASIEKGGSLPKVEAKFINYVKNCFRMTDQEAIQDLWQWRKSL
T1 sequence (Q61937 whole entry): as above

Nc1ncn([C@@H]2O[C@H](CO)[C@@H](O)[C@H]2O)c(=O)n1 [5-azacytidine]
binding of anti-NPM1 antibodies to NPM1 on the surface of OCI-AML3 cells ([1]; 40 nM 5-azacytidine): The same effect was observed | binding between the isolated anti-mutant NPM1 and OCI-AML3 cells ([1]; after only 24 hours of treatment with 5-Aza): substantially enhanced | NPM1 on the cell surface (OCI-AML3 cells): increased

COc1cccc2c1C(=O)c1c(O)c3c(c(O)c1C2=O)C[C@@](O)(C(C)=O)C[C@@H]3O[C@H]1C[C@H](N)[C@H](O)[C@H](C)O1 [daunorubicin]
binding between the isolated anti-WT NPM1 and anti-mutant NPM1 antibody and NPM1 on the surface of OCI-AML3 cells ([1]; 10 nM daunorubicin or 40 nM venetoclax): enhanced binding | binding of anti-NPM1 antibody (Merck/Sigma anti-B23 #B0556) to cells ([1]; 8 days post-treatment, 10 nM daunorubicin or 40 nM venetoclax): substantially enhanced | binding of anti-NPM1 antibody (Merck/Sigma anti-B23 #B0556) to cells ([1]; after 48 hours of treatment, 10 nM daunorubicin or 40 nM venetoclax): enhanced | NPM1 on the cell surface (OCI-AML3 cells): increased | time for which higher NPM1 expression was maintained (OCI-AML3 cells): at least 9 days | antibody binding (cell surface NPM1) compared to controls [2]: no change | antibody binding (cell surface NPM1) compared to controls [3]: no change

B1: Ab1 (antibody)
heavy: EVQLQQSVAELVRPGASVKLSCTASGFNIKNIFVHWVKQRPEQGLEWIGKIDPANDNTKFAPNFQGKAAISADTSSNTAYLQLSSLTSEDTAIYYCASDSSGYDAVDYWGQGTSVTVSSAKTTAPSVYPLAPVCGDTTGSSVTLGCLVKGYFPEPVTLTWNSGSLSSGVHTFPAVLQSDLYTLSSSVTVTSSTWPSQSITCNVAHPASSTKVDKKIEPRGPTIKPCPPCKCPAPNLLGGPSVFIFPPKIKDVLMISLSPIVTCVVVDVSEDDPDVQISWFVNNVEVHTAQTQTHREDYNSTLRVVSALPIQHQDWMSGKEFKCKVNNKDLPAPIERTISKPKGSVRAPQVYVLPPPEEEMTKKQVTLTCMVTDFMPEDIYVEWTNNGKTELNYKNTEPVLDSDGSYFMYSKLRVEKKNWVERNSYSCSVVHEGLHNHHTTKSFSRTPGK
light: DIQMTQSPASLSASVGETVTITCRASESVYTYLAWYQQKQGKSPQLLVYNAKTLTEGVPSRFSGSGSGTQFSLRINSLQPEDFGSYYCQHHYGTPYTFGSGTKLEIKRADAAPTVSIFPPSSEQLTSGGASVVCFLNNFYPKDINVKWKIDGSERQNGVLNSWTDQDSKDSTYSMSSTLTLTKDEYERHNSYTCEATHKTSTSPIVKSFNRNEC
binding to surface localized NPM1 [4]: capable of binding | binding to surface localized NPM1 [5]: capable of binding | binding to NPM1 on PDX cells [6]: bound | binding to host murine bone marrow cells [7]: without binding

B2: Ab1 anti-NPM1 antibody (antibody, mouse IgG2a, kappa, V domains shown)
VH: EVQLQQSVAELVRPGASVKLSCTASGFNIKNIFVHWVKQRPEQGLEWIGKIDPANDNTKFAPNFQGKAAISADTSSNTAYLQLSSLTSEDTAIYYCASDSSGYDAVDYWGQGTSVTVSS
VL: DIQMTQSPASLSASVGETVTITCRASESVYTYLAWYQQKQGKSPQLLVYNAKTLTEGVPSRFSGSGSGTQFSLRINSLQPEDFGSYYCQHHYGTPYTFGSGTKLEIKR
notes: also called isolated anti-WT NPM1 antibody
binding result (murine NPM1): binds | binding result [8]: binds
